The values that follow come from US10195155B2, “Drug carrier for tumor-specific targeted drug delivery and use thereof” (Institute of Biophysics, Chinese Academy of Sciences, priority 2014, dated 2019).

Each structure is given as a SMILES string.

One data set relates to HT-29 implanted tumor. Kind of data set: Anti-tumor pharmacodynamics in nude mice bearing HT-29 implanted tumor. To be noted: single tail vein dose.
Data set [1] can be described thus: Maximal tolerated dosage in healthy mice, single administration. To be noted: HFn-Dox by Dox equivalent. The text has this: In the therapy of a cancer patient, the dosage of administration and the number of administration were very important. However, bound by toxic side effects of chemotherapeutic drugs, the therapy of cancer usually became administration in a small amount at a high frequency.

Procedure for HT-29 implanted tumor: 40 female BALB/c nude mice bearing HT-29 implanted tumor were randomly divided into five groups. When the volume of the implanted tumor was up to about 100 square millimeters, drugs were injected to all of tumor-bearing mice through the tail vein. […] Since the maximal tolerated dosage of mice to free Doxorubicin was 5 mg/kg mouse body weight, the administration dosage of the free Doxorubicin group was 5 mg/kg mouse body weight. […] Measurements of body weights and tumors of mice were three times per week.

Consider `COc1cccc2c1C(=O)c1c(O)c3c(c(O)c1C2=O)C[C@@](O)(C(=O)CO)C[C@@H]3O[C@H]1C[C@H](N)[C@H](O)[C@H](C)O1` [free Doxorubicin, Doxorubicin], for which the “average survival time of tumor-bearing mice” value in the data set on HT-29 implanted tumor (free Dox 5 mg/kg, Doxil 20 mg/kg) was found to be 18 days. The tumor growth inhibition entry in the data set with HT-29 implanted tumor (free Doxorubicin 5 mg/kg, HFn-Dox and Doxil 20 mg/kg, 40-day window) was “almost no inhibitory effect”. Besides, in data set [1], the maximal tolerated dosage worked out at 5 mg/kg.
